Assay results reported in ChEMBL document CHEMBL4270589, “Novel coumarin-pyrazole carboxamide derivatives as potential topoisomerase II inhibitors: Design, synthesis and antibacterial activity” (Eur J Med Chem, 2018).
In brackets after ≈: the same amount, converted by molar mass.

How the values were obtained:
Format in all cases: functional
[1] = tested on: Staphylococcus aureus; assay: Antibacterial activity against Staphylococcus aureus ATCC 12600 after 24 hrs by agar dilution method; settings: ATCC 12600, 24 h
[2] = tested on: Salmonella enterica; assay: Antibacterial activity against Salmonella enterica ATCC 9184 after 24 hrs by agar dilution method; settings: ATCC 9184, 24 h
[3] = tested on: Listeria monocytogenes; assay: Antibacterial activity against Listeria monocytogenes ATCC 15313 after 24 hrs by agar dilution method; settings: ATCC 15313, 24 h
[4] = tested on: Escherichia coli; assay: Antibacterial activity against Escherichia coli ATCC 25922 after 24 hrs by agar dilution method; settings: ATCC 25922, 24 h

| SMILES | MIC [1] | MIC [2] | MIC [3] | MIC [4] |
| --- | --- | --- | --- | --- |
| Cc1ccc(-n2ncc(C#N)c2NC(=O)c2cc3cc([N+](=O)[O-])ccc3oc2=O)cc1 | > 128 µg/mL | > 128 µg/mL | > 128 µg/mL | > 128 µg/mL |
| Cc1ccc2oc(=O)c(C(=O)Nc3c(C#N)cnn3-c3ccc(F)cc3)cc2c1 | > 128 µg/mL | > 128 µg/mL | > 128 µg/mL | > 128 µg/mL |
| CCOC(=O)c1cnn(-c2ccccc2)c1NC(=O)c1cc2cc([N+](=O)[O-])ccc2oc1=O | > 128 µg/mL | > 128 µg/mL | > 128 µg/mL | > 128 µg/mL |
| Cc1ccc2oc(=O)c(C(=O)Nc3c(C(=O)O)cnn3-c3ccc(Cl)cc3)cc2c1 | 16 µg/mL (≈ 37.8 µM) | 16 µg/mL (≈ 37.8 µM) | 16 µg/mL (≈ 37.8 µM) | 8 µg/mL (≈ 18.9 µM) |
| Cc1ccc2oc(=O)c(C(=O)Nc3c(C#N)cnn3-c3ccccc3)cc2c1 | 64 µg/mL (≈ 173 µM) | 8 µg/mL (≈ 21.6 µM) | 64 µg/mL (≈ 173 µM) | 8 µg/mL (≈ 21.6 µM) |
| CCOC(=O)c1cnn(-c2ccc(C)cc2)c1NC(=O)c1cc2cc([N+](=O)[O-])ccc2oc1=O | > 128 µg/mL | > 128 µg/mL | > 128 µg/mL | > 128 µg/mL |
| CCN(CC)c1ccc2cc(C(=O)Nc3c(C(=O)O)cnn3-c3ccc(F)cc3)c(=O)oc2c1 | 32 µg/mL (≈ 68.9 µM) | 16 µg/mL (≈ 34.4 µM) | 16 µg/mL (≈ 34.4 µM) | 32 µg/mL (≈ 68.9 µM) |
| O=C(O)c1cnn(-c2ccc(F)cc2)c1NC(=O)c1cc2cc(Cl)ccc2oc1=O | 64 µg/mL (≈ 150 µM) | > 128 µg/mL | 32 µg/mL (≈ 74.8 µM) | 32 µg/mL (≈ 74.8 µM) |
| N#Cc1cnn(-c2ccc(F)cc2)c1NC(=O)c1cc2cc(Cl)ccc2oc1=O | 32 µg/mL (≈ 78.3 µM) | 64 µg/mL (≈ 157 µM) | 32 µg/mL (≈ 78.3 µM) | 32 µg/mL (≈ 78.3 µM) |
| CCOC(=O)c1cnn(-c2ccccc2)c1NC(=O)c1cc2cc(C)ccc2oc1=O | 32 µg/mL (≈ 76.7 µM) | 16 µg/mL (≈ 38.3 µM) | 32 µg/mL (≈ 76.7 µM) | 16 µg/mL (≈ 38.3 µM) |
| CCOC(=O)c1cnn(-c2ccc(C)cc2)c1NC(=O)c1cc2cc(C)ccc2oc1=O | 32 µg/mL (≈ 74.2 µM) | > 128 µg/mL | > 128 µg/mL | 64 µg/mL (≈ 148 µM) |
| O=C(O)c1cnn(-c2ccccc2)c1NC(=O)c1cc2cc(Cl)ccc2oc1=O | 32 µg/mL (≈ 78.1 µM) | > 128 µg/mL | 32 µg/mL (≈ 78.1 µM) | 32 µg/mL (≈ 78.1 µM) |
| N#Cc1cnn(-c2ccccc2)c1NC(=O)c1cc2cc([N+](=O)[O-])ccc2oc1=O | > 128 µg/mL | > 128 µg/mL | > 128 µg/mL | > 128 µg/mL |
| CCOC(=O)c1cnn(-c2ccc(F)cc2)c1NC(=O)c1cc2ccc(N(CC)CC)cc2oc1=O | > 128 µg/mL | > 128 µg/mL | > 128 µg/mL | > 128 µg/mL |
| Cc1ccc2oc(=O)c(C(=O)Nc3c(C(=O)O)cnn3-c3ccc(F)cc3)cc2c1 | 64 µg/mL (≈ 157 µM) | 32 µg/mL (≈ 78.6 µM) | 32 µg/mL (≈ 78.6 µM) | 4 µg/mL (≈ 9.82 µM) |
| Cc1ccc2oc(=O)c(C(=O)Nc3c(C#N)cnn3-c3ccc(Cl)cc3)cc2c1 | 2 µg/mL (≈ 4.94 µM) | 2 µg/mL (≈ 4.94 µM) | 16 µg/mL (≈ 39.5 µM) | 4 µg/mL (≈ 9.88 µM) |
| CCN(CC)c1ccc2cc(C(=O)Nc3c(C(=O)O)cnn3-c3ccccc3)c(=O)oc2c1 | 2 µg/mL (≈ 4.48 µM) | 0.25 µg/mL (≈ 0.56 µM) | 1 µg/mL (≈ 2.24 µM) | 8 µg/mL (≈ 17.9 µM) |
| CCOC(=O)c1cnn(-c2ccccc2)c1NC(=O)c1cc2ccc(N(CC)CC)cc2oc1=O | 64 µg/mL (≈ 135 µM) | 64 µg/mL (≈ 135 µM) | 64 µg/mL (≈ 135 µM) | 64 µg/mL (≈ 135 µM) |
| O=C(O)c1cnn(-c2ccc(F)cc2)c1NC(=O)c1cc2cc(Br)ccc2oc1=O | > 128 µg/mL | 32 µg/mL (≈ 67.8 µM) | 32 µg/mL (≈ 67.8 µM) | 4 µg/mL (≈ 8.47 µM) |
| O=C(O)c1cnn(-c2ccccc2)c1NC(=O)c1cc2cc(Br)ccc2oc1=O | > 128 µg/mL | > 128 µg/mL | > 128 µg/mL | > 128 µg/mL |
| CCOC(=O)c1cnn(-c2ccccc2)c1NC(=O)c1cc2cc(Cl)ccc2oc1=O | 4 µg/mL (≈ 9.14 µM) | 64 µg/mL (≈ 146 µM) | 64 µg/mL (≈ 146 µM) | 16 µg/mL (≈ 36.5 µM) |
| N#Cc1cnn(-c2ccc(Cl)cc2)c1NC(=O)c1cc2cc(Br)ccc2oc1=O | 4 µg/mL (≈ 8.52 µM) | 0.25 µg/mL (≈ 0.532 µM) | 16 µg/mL (≈ 34.1 µM) | 8 µg/mL (≈ 17 µM) |
| Cc1ccc(-n2ncc(C(=O)O)c2NC(=O)c2cc3cc(Br)ccc3oc2=O)cc1 | 64 µg/mL (≈ 137 µM) | > 128 µg/mL | > 128 µg/mL | 64 µg/mL (≈ 137 µM) |
| CCN(CC)c1ccc2cc(C(=O)Nc3c(C#N)cnn3-c3ccc(Cl)cc3)c(=O)oc2c1 | 2 µg/mL (≈ 4.33 µM) | 16 µg/mL (≈ 34.6 µM) | 8 µg/mL (≈ 17.3 µM) | 2 µg/mL (≈ 4.33 µM) |
| Cc1ccc(-n2ncc(C(=O)O)c2NC(=O)c2cc3cc(Cl)ccc3oc2=O)cc1 | > 128 µg/mL | > 128 µg/mL | 16 µg/mL (≈ 37.8 µM) | > 128 µg/mL |
| N#Cc1cnn(-c2ccc(F)cc2)c1NC(=O)c1cc2cc(Br)ccc2oc1=O | 2 µg/mL (≈ 4.41 µM) | > 128 µg/mL | 64 µg/mL (≈ 141 µM) | 64 µg/mL (≈ 141 µM) |
| Cc1ccc(-n2ncc(C(=O)O)c2NC(=O)c2cc3ccccc3oc2=O)cc1 | 64 µg/mL (≈ 164 µM) | > 128 µg/mL | > 128 µg/mL | 64 µg/mL (≈ 164 µM) |
| N#Cc1cnn(-c2ccccc2)c1NC(=O)c1cc2cc(Br)ccc2oc1=O | > 128 µg/mL | > 128 µg/mL | > 128 µg/mL | > 128 µg/mL |
